According to patent publication US20230012570A1, “BICYCLIC COMPOUND USED AS SELECTIVE ANDROGEN RECEPTOR MODULATOR” (MEDSHINE DISCOVERY INC., priority 2019, published 2023):

Molecular target: T1, androgen receptor (AR) (Homo sapiens, UniProt P10275)
T1 sequence (P10275 1-920): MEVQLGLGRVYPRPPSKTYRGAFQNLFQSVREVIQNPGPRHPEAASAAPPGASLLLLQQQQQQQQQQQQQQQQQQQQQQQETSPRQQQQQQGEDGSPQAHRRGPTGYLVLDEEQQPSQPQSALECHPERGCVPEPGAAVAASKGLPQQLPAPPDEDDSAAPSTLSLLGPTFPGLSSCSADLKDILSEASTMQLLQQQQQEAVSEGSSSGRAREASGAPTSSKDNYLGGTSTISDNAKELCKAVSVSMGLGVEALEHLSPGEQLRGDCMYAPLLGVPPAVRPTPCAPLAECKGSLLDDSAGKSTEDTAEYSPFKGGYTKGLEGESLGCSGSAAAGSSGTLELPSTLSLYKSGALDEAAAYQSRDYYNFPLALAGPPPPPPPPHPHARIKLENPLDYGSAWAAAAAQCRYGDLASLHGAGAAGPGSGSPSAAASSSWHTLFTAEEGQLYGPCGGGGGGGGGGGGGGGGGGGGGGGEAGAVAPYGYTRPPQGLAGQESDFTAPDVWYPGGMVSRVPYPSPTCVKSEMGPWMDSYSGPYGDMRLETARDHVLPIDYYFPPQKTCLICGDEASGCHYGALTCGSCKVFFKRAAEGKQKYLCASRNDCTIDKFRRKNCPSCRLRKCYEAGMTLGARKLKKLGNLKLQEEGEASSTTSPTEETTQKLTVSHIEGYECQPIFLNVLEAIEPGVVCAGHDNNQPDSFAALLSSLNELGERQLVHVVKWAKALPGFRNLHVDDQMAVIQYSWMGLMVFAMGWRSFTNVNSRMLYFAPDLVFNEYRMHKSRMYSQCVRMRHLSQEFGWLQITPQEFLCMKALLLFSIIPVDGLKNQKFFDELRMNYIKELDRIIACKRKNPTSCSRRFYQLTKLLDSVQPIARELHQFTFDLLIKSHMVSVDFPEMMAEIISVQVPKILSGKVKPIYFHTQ
Test: Agonistic effect of test compounds on androgen receptor (AR), LiveBLAzer FRET reporter cell assay
Type: cell-based
Method: Experimental Embodiment 1: Agonistic Effect of Test Compounds on Androgen Receptor (AR)
1. Preparation of Compounds, Placing in Plates:
1.1 Preparation of compounds: the test compounds were diluted to the working concentration, and each compound was diluted by 4 times with Echo for 10 concentration gradients, and the compounds were added to a 384-well cell plate according to the microplate layout diagram, with 200 nL per well;
1.2 AR cell assay medium: 87% Opti-MEM (reduced serum medium), 10% Dialyzed FBS (dialyzed fetal bovine serum), 1% NEAA (non-essential amino acids), 1% sodium pyruvate and 1% penicillin-streptomycin;
1.3 culture medium, trypsin and Dulbecco's phosphate buffer were preheated in a 37° C. water bath;
1.4 the original medium in the cell culture flask was removed, and the cells were washed once with 6 mL of Dulbecco's phosphate buffer;
1.5 3.5 mL of trypsin was added to the cell culture flask, and the flask was gently shaken to make the trypsin fully contact with the cells, the trypsin was removed; after aspirating the trypsin, the culture flask was placed in a 37° C. incubator containing 5% CO2 for about 1 minute;
1.6 the cells were resuspended with 10 mL of cell detection medium, and about 0.8 mL of cell suspension was taken out for counting (ViCell XR)
1.7 the cell suspension was diluted with culture medium to 2.5×10^5 cells per mL;
1.8 40 !IL of cell suspension was added to each well of the cell plate, and 40 μL of cell culture medium was added to the other wells, and the cells were incubated in a 37° C. incubator containing 5% CO2 for 16 hours.
2. Reading the Board and Analyzing Data:
2.1 Preparation of solution A: 182 μL of DMSO was added to 200 μg of LiveBLAzer™-FRET B/G/g substrate (CCF4-AM). The solution A was packaged and stored in a refrigerator at −20° C.;
2.2 preparation of 6×substrate buffer: 15 μL of solution A was added to 150 μL of solution B, and the mixture was vortexed evenly, then 2335 μL of solution C was added to the above solution and vortexed evenly;
2.3 the cell culture plate was taken out, and 8μL of 6×substrate buffer was added to each well, shaken for 1 minute, and centrifuged at 1000 rpm for 10 seconds; after sealing the membrane, the cells were incubated at 23° C. for 2 hours, and the plate was read with Envision, and the curve EC50 value was fitted by Prism software.

For `N#Cc1ccc(N2CC3CC3C2C(O)C(F)(F)F)cc1Cl` (single isomer, unassigned) [Compound 3A], the EC50 was 0.81 nM.
